The subject of this data set is rodent carcinogenicity bioassays, tumor incidence. Kind of data set: CCRIS carcinogenicity studies. Conditions: Dose: 0, Dose: 0. The text has this:
The CCRIS database contains chemical records with carcinogenicity, mutagenicity, tumor promotion, and tumor inhibition test results. It was developed by the National Cancer Institute (NCI). Data are derived from studies cited in primary journals, current awareness tools, NCI reports, and other sources. Test results have been reviewed by experts in carcinogenesis and mutagenesis.
CCRIS provides historical information from the years 1985 - 2011. It is no longer updated.
This is an archive assay for CCRIS carcinogenicity studies.

The source made the active and inactive calls. How the calls were made is not given here.

Consider `CC1(C)S[C@@H]2[C@H](NC(=O)COc3ccccc3)C(=O)N2[C@H]1C(=O)O`, for which the carcinogen call reads like this: (Species: MOUSE, Strain/Sex: B6C3F1/FEMALE, Route: GAVAGE, 500, 1000 MG/KG IN CORN OIL 5 D/WK FOR 103-104 WK (STUDY DURATION: 106 WK), 500, 1000 MG/KG IN CORN OIL 5 D/WK FOR 103-104 WK (STUDY DURATION: 106 WK)) “inactive; negative”; (Species: MOUSE, Strain/Sex: B6C3F1/FEMALE, Route: GAVAGE, 500, 1000 MG/KG IN CORN OIL 5D/WK FOR 104 WK, 500, 1000 MG/KG IN CORN OIL 5D/WK FOR 104 WK) “inactive; negative”; (Species: MOUSE, Strain/Sex: B6C3F1/MALE, Route: GAVAGE, 500, 1000 MG/KG IN CORN OIL 5 D/WK FOR 103-104 WK (STUDY DURATION: 106 WK), 500, 1000 MG/KG IN CORN OIL 5 D/WK FOR 103-104 WK (STUDY DURATION: 106 WK)) “inactive; negative”; (Species: MOUSE, Strain/Sex: B6C3F1/MALE, Route: GAVAGE, 500, 1000 MG/KG IN CORN OIL 5D/WK FOR 104 WK, 500, 1000 MG/KG IN CORN OIL 5D/WK FOR 104 WK) “inactive; negative”; (Species: RAT, Strain/Sex: F344/FEMALE, Route: GAVAGE, 500, 1000 MG/KG IN CORN OIL 5 D/WK FOR 103-104 WK (STUDY DURATION: 106 WK), 500, 1000 MG/KG IN CORN OIL 5 D/WK FOR 103-104 WK (STUDY DURATION: 106 WK)) “inactive; negative”; (Species: RAT, Strain/Sex: F344/FEMALE, Route: GAVAGE, 500, 1000 MG/KG IN CORN OIL 5D/WK FOR 103 WK (STUDY DURATION: 104 WK), 500, 1000 MG/KG IN CORN OIL 5D/WK FOR 103 WK (STUDY DURATION: 104 WK)) “inactive; negative”. Besides, the carcinogen call was “inactive; negative” (Species: RAT, Strain/Sex: F344/MALE, Route: GAVAGE, 500, 1000 MG/KG IN CORN OIL 5 D/WK FOR 103-104 WK (STUDY DURATION: 106 WK), 500, 1000 MG/KG IN CORN OIL 5 D/WK FOR 103-104 WK (STUDY DURATION: 106 WK)) and “inactive; negative” (Species: RAT, Strain/Sex: F344/MALE, Route: GAVAGE, 500, 1000 MG/KG IN CORN OIL 5D/WK FOR 103 WK (STUDY DURATION: 104 WK), 500, 1000 MG/KG IN CORN OIL 5D/WK FOR 103 WK (STUDY DURATION: 104 WK)).

As for `COc1cc(-c2ccc(N=C=O)c(OC)c2)ccc1N=C=O`, the carcinogen call is “inactive; negative” (Species: MOUSE, Strain/Sex: B6C3F1/FEMALE, Route: ORAL, 22000, 44000 PPM IN DIET FOR 78 WK (STUDY DURATION: 103 WK), 22000, 44000 PPM IN DIET FOR 78 WK (STUDY DURATION: 103 WK)); “inactive; negative” (Species: MOUSE, Strain/Sex: B6C3F1/MALE, Route: ORAL, 22000, 44000 PPM IN DIET FOR 78 WK (STUDY DURATION: 103 WK), 22000, 44000 PPM IN DIET FOR 78 WK (STUDY DURATION: 103 WK)); “active; positive” (Species: RAT, Strain/Sex: F344/FEMALE, Route: GAVAGE, ORAL, 1500, 3000 MG/KG FOR 22 WK, THEN 22000, 44000 PPM IN DIET FOR 56 WK (STUDY DURATION: 104 WK), 1500, 3000 MG/KG FOR 22 WK, THEN 22000, 44000 PPM IN DIET FOR 56 WK (STUDY DURATION: 104 WK), Tumor Site: Type of Lesion: HEMATOPOIETIC SYSTEM (LEUKEMIA), UTERUS: ENDOMETRIAL STROMAL POLYP, EAR (ZYMBAL GLAND AND SKIN OF EAR): SQUAMOUS CELL CA, Tumor Site: Type of Lesion: HEMATOPOIETIC SYSTEM (LEUKEMIA), UTERUS: ENDOMETRIAL STROMAL POLYP, EAR (ZYMBAL GLAND AND SKIN OF EAR): SQUAMOUS CELL CA); “active; positive” (Species: RAT, Strain/Sex: F344/MALE, Route: GAVAGE, ORAL, 1500, 3000 MG/KG FOR 22 WK, THEN 22000, 44000 PPM IN DIET FOR 56 WK (STUDY DURATION: 104 WK), 1500, 3000 MG/KG FOR 22 WK, THEN 22000, 44000 PPM IN DIET FOR 56 WK (STUDY DURATION: 104 WK), Tumor Site: Type of Lesion: INTEGUMENTARY SYSTEM (SKIN (EXCLUDING SKIN OF EAR)): PAPILLOMA (NOS) OR BASAL CELL TUMOR OR TRICHOEPITHELIOMA OR SEBACEO).

On to `N#CCCC(Br)(C#N)CBr` (centres undefined), for which the carcinogen call by setting is: (Species: Mouse, Strain/Sex: B6C3F1/Female (50/Group), Route: Dermal, 0.6, 2, 6 mg/kg in 95% ethanol on clipped area of skin 5 d/wk for 2 yr, 0.6, 2, 6 mg/kg in 95% ethanol on clipped area of skin 5 d/wk for 2 yr) “inactive; negative”; (Species: Mouse, Strain/Sex: B6C3F1/Male (50/Group), Route: Dermal, 0.6, 2, 6 mg/kg in 95% ethanol on clipped area of skin 5 d/wk for 2 yr, 0.6, 2, 6 mg/kg in 95% ethanol on clipped area of skin 5 d/wk for 2 yr) “inactive; negative”; (Species: Rat, Strain/Sex: F344/N / Female (50/Group), Route: Dermal, 2, 6, 18 mg/kg in 95% ethanol on clipped area of skin 5 d/wk for 2 yr, 2, 6, 18 mg/kg in 95% ethanol on clipped area of skin 5 d/wk for 2 yr) “inactive; negative”; (Species: Rat, Strain/Sex: F344/N / Male (50/Group), Route: Dermal, 2, 6, 18 mg/kg in 95% ethanol on clipped area of skin 5 d/wk for 2 yr, 2, 6, 18 mg/kg in 95% ethanol on clipped area of skin 5 d/wk for 2 yr) “inactive; negative”.

`COP(=O)(OC)OC(=CCl)c1cc(Cl)c(Cl)cc1Cl`: the carcinogen call by setting is: (Species: MOUSE, Strain/Sex: B6C3F1/MALE, Route: ORAL, 8000, 16000 PPM IN DIET, 8000, 16000 PPM IN DIET, Tumor Site: Type of Lesion: LIVER: NEOPLASTIC NODULE OR HEPATOCELLULAR CARCINOMA) “active; positive”; (Species: RAT, Strain/Sex: OSBORNE-MENDEL/MALE, Route: ORAL, 4250, 8500 PPM IN DIET, TWA, 4250, 8500 PPM IN DIET, TWA) “inactive; negative”.

Take `Cc1cc(=O)oc2c1cc(C)c1occ(C)c12`: the carcinogen call (Species: MOUSE, Strain/Sex: C3H/HEN/FEMALE, Route: DERMAL, 250 UG IN 70% ETHANOL 3/WK FOR 48 WK (STUDY DURATION: 68 WK)) is “inactive; negative”.

The values are drawn from PubChem BioAssay AID1259411 (Chemical Carcinogenesis Research Information System (CCRIS), 2018).
